Results published in patent US11672758B2, “Endoxifen methods and compositions for inhibition of protein kinase C” (Jina Pharmaceuticals, Inc., priority 2006, dated 2023).
Where “and” joins values, the source holds several entries; their conditions need not be identical. Identical values can stand only once. Like-named read-outs stand apart in the source and are kept apart here.

Key:
[1] = cited from earlier work
[2] = Comparative pharmacokinetic study in rats; format: in vivo; conditions: oral 10 mg/kg endoxifen versus 10 mg/kg tamoxifen
male Balb/c mice = assay: Toxicity testing, intravenous single and repeat dose in mice; format: in vivo
Experimental: Endoxifen was formulated according to Example 6 and was tested for toxicity in male Balb/c mice. A single test dose at 100 mg/kg or 50 mg/kg was intravenously administered to mice. […] The mice also survived in the control group with a vehicle control that lacked endoxifen. Repeat dose toxicity study was conducted with a dose of 25 mg/kg administered consecutively for 3 days with accumulated dose of 75 mg/kg. […] The results are reported in the table below as the number of mice surviving per total.

PKC = PKC kinase activity assay kit (Assay Designs); format: biochemical; conditions: for percentage PKC inhibition: PKC 10 ng/well
Experimental: A PKC kinase activity assay kit (Assay Designs, Ann Arbor, Mich.) was used to test endoxifen PKC inhibitory activity 0.025, 0.05, 0.1, or 0.2 mM endoxifen was used in a reaction mix containing PKC 10 ng/well.

patients = patients on raloxifene for osteoporosis; cited from earlier work
Parkinsonian monkeys = conditions: co-administered with levodopa to Parkinsonian monkeys; cited from earlier work

Compound: 4-hydroxy tamoxifen [4-OH-tamoxifen, reference compound]
- concentration in the human plasma ([1]; human, in vivo): 1 ng/mL

Compound: CC/C(=C(\c1ccc(O)cc1)c1ccc(OCCNC)cc1)c1ccccc1 [Endoxifen, 4-hydroxy N-desmethyl tamoxifen]
- endoxifen plasma concentration compared to that after same dose of tamoxifen [2]: 10 fold
- Survival/Total (male Balb/c mice; repeat dose 25 mg/kg consecutively for 3 days, accumulated dose 75 mg/kg): 4/4
- loss of body weight (male Balb/c mice; single dose 50 mg/kg intravenous): no significant loss of body weight
- Survival/Total (male Balb/c mice; single dose 50 mg/kg intravenous, formulated according to Example 6, 50 mg/kg): all animals survived and 4/4
- Survival/Total (male Balb/c mice; single dose 100 mg/kg intravenous, formulated according to Example 6, 100 mg/kg): All the mice died and 0/2
- percentage PKC inhibition (PKC; 0.2 mM): 80%
- percentage PKC inhibition (PKC; […]): 12%
- potency as PKC inhibitor relative to tamoxifen (PKC; endoxifen versus tamoxifen): at least four fold more potent
- concentration in the human plasma ([1]; patients treated with tamoxifen): 12.4 ng/mL

Compound: O=C(c1ccc(OCCN2CCCCC2)cc1)c1c(-c2ccc(O)cc2)sc2cc(O)ccc12 [raloxifene]
- reduction in risk of mild cognitive impairment (patients): 33%

Compound: CC/C(=C(\c1ccccc1)c1ccc(OCCN(C)C)cc1)c1ccccc1 [tamoxifen, reference compound]
- attenuation of levodopa-induced dyskinesias (Parkinsonian monkeys): 61%
